Data reported in US7429607B2, “5-HT2B receptor antagonists” (Asterand UK Limited, priority 2002, dated 2008).

Key:
[1] = biological target: T1, human cloned 5-HT2B receptors (Homo sapiens, UniProt P41595); experiment: Human cloned 5-HT2B receptor binding assay ([3H]LSD, CHO-K1 membranes); conditions: displacement of [3H]LSD (1 nM), read-out: 5-HT2B pKi (converted)
T1 construct: expressed in transfected cells; host or cells: CHO-K1 cells
Method: The binding affinity of the compounds for human cloned 5-HT2B receptors was determined using the following assay.
CHO-K1 cells expressing cloned 5-HT2B receptor were maintained in Ultra-CHO medium containing 400 μg/ml of G418, 100 U/ml penicillin, 100 μg/ml streptomycin, 2.5 μg/ml fungizone and 1% foetal bovine serum, in 95/5% O2/CO2 at 37° C. The cells were harvested using 0.25% trypsin and were centrifuged at 800 rpm for 8 minutes. The cells were homogenised in 50 mM HEPES buffer containing 1 mM disodium EDTA and 1 mM PMSF at pH 7.4, using a Dounce homogeniser (20 strokes). The homogenate was centrifuged at 2280 rpm (1000 g) and 4° C. for 10 minutes, after which the supernatant was removed by decanting. The pellet was re-homogenised as above, and the resulting supernatant removed and combined with that already obtained. The supernatant solution was then centrifuged at 18300 rpm (40000 g) for 10 minutes at 4° C. using a Sorvall centrifuge. The supernatant was removed, and the pellet was re-suspended in 50 mM buffer at pH 7.4 using a Ultra-turrax T25 Polytron, before centrifugation again at 40000 g as above. This wash procedure was repeated, after which the membrane preparation was stored at a concentration of 1 mg/ml at −80° C. until use.
The membranes were thawed rapidly and diluted in assay buffer containing Tris-HCl (50 mM, pH 7.4), ascorbic acid (0.1%) and calcium chloride (4 mM). The membranes were homogenised to resuspend them, prior to adding 10 or 15 μg of membranes to assay wells containing [^3H]LSD (1 nM), assay buffer (50 mM Tris, 4 mM calcium chloride and 0.1% ascorbic acid) containing pargyline (10 μM), and the test compounds (1×10^−10 to 1×10^−4M). Non specific binding was determined in the presence of 100 μM 5-HT. After 30 minutes incubation at 37° C., the assay mixture was filtered through a combination of GF-C and GF-B filters, pre-soaked in 1% polyethyleneimine, using a Brandel cell harvester, and were washed three times using 50 mM Tris-HCl. Radioactivity retained on the filters was determined by liquid scintillation counting. For each test compound, the concentration that inhibited binding of [3H]LSD by 50% was determined using curve fitting software (Prism). Kd values (concentration of LSD required to occupy 50% of the receptor binding sites at equilibrium) determined from saturation binding studies were then used to calculate inhibition dissociation constants (Ki) using the following equation: […]
This approach follows that set out in Kenakin, T.P. Pharmacologic analysis of drug-receptor interaction. Raven Press, New York, 2nd Edition.

[2] = biological target: T2, cloned human 5-HT2A receptor (Homo sapiens, UniProt P28223); experiment: Human 5-HT2A receptor binding assay ([3H]ketanserin, CHO-K1 membranes); conditions: displacement of [3H]ketanserin (1 nM), read-out: 5-HT2A pKi (converted)
T2 construct: purchased Euroscreen; host or cells: CHO-K1 cells
Method: (§1) The binding affinity of ligands for human 5-HT2A and 5-HT2C receptors was determined using the following assay.
Membrane preparations from CHO-K1 cells expressing the cloned human 5-HT2A receptor were obtained (Euroscreen). The membranes were thawed rapidly and diluted in assay buffer containing Tris-HCl (50 mM, pH 7.7). The membranes were resuspended by homogenisation, prior to adding 15 μg of membranes to assay wells containing [3H] ketanserin (1 nM), assay buffer (50 mM Tris at pH 7.4) containing pargyline (10 μM), and test compounds (1×10^−10 to 1×10^−4M). Non specific binding was determined in the presence of 100 μM mianserin. After 15 minutes incubation at 37° C., the assay mixture was filtered through a combination of GF-C and GF-B filters, pre-soaked in 0.05% Brij, using a Brandel cell harvester, and were washed three times using ice cold Tris-HCl buffer (50 mM). Radioactivity retained on the filters was determined by liquid scintillation counting. For each test compound, the concentration that inhibited binding of [^3H]ketanserin by 50% was determined using curve fitting software (Prism). Kd values (concentration of ketanserin required to occupy 50% of the receptor binding sites at equlibrium) determined from saturation binding studies were then used to calculate inhibition dissociation constants (Ki) using the following equation: […]

[3] = biological target: T3, cloned human 5-HT2C receptor (Homo sapiens, UniProt P28335); experiment: Human 5-HT2C receptor binding assay ([3H]mesulergine, CHO-K1 membranes); conditions: displacement of [3H]mesulergine (1 nM), read-out: 5-HT2C pKi (converted)
T3 construct: purchased Euroscreen; host or cells: CHO-K1 cells
T3 sequence (P28335 33-458): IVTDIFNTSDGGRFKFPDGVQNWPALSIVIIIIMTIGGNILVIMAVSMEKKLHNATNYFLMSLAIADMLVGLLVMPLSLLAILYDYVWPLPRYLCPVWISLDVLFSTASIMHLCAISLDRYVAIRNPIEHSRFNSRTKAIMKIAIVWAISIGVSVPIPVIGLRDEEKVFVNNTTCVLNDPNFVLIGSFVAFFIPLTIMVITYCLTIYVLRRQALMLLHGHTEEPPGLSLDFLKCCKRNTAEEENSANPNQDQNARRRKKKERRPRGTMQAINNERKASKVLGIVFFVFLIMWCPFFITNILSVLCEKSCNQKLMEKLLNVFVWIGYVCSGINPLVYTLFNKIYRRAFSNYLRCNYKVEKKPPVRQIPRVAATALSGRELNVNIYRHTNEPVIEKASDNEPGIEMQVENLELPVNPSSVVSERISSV
Method: as §1
Membrane preparations from CHO-K1 cells expressing the cloned human 5-HT2C receptor were obtained (Euroscreen). The membranes were thawed rapidly and diluted in assay buffer containing Tris-HCl (50 mM, pH 7.7), ascorbic acid (0.1%) and pargyline (10 μM). The membranes were resuspended by homogenisation, prior to adding 6 μg of membranes to assay wells containing [^3H] mesulergine (1 nM), assay buffer (50 mM Tris at pH 7.7 and 0.1% ascorbic acid) containing pargyline (10 μM), and test compounds (1×10^−10 to 1×10^−4M). Non specific binding was determined in the presence of 100 μM mianserin. After 30 minutes incubation at 37° C., the assay mixture was filtered through a combination of GF-C and GF-B filters, pre-soaked in 1% bovine serum albumin, using a Brandel cell harvester, and were washed three times using ice cold Tris-HCl buffer (50 mM). Radioactivity retained on the filters was determined by liquid scintillation counting. For each test compound, the concentration that inhibited binding of [3H]mesulergine by 50% was determined using curve fitting software (Prism). Kd values (concentration of mesulergine required to occupy 50% of the receptor binding sites at equlibrium) determined from saturation binding studies were then used to calculate inhibition dissociation constants (Ki) using the following equation: […]

[4] = biological target: T1, human cloned 5-HT2B receptors; experiment: Human cloned 5-HT2B cell-based functional assay (Fluo-4, CHO.K1 cells); conditions: inhibition of 5-HT response, CHO.K1 cells expressing cloned 5-HT2B, Fluo-4 AM
Method: The following describes an in vitro functional assay using human cloned 5-HT2B receptors to determine the ability of compounds to block the receptor. CHO.K1 cells expressing cloned 5-HT2B receptor were maintained In Ultra-CHO medium containing 400 μg/ml of G418, 100 U/ml penicillin, 100 μg/ml streptomycin, 2.5 μg/ml fungizone, in 95/5% O2/CO2 at 37° C. Ultra-CHO medium additionally supplemented with 1% foetal bovine serum was used when seeding the cells and removed after 5 hours. Cells were plated in Costar 96 well white, clear-bottomed plate at a density of 50,000 cells per well and incubated for at least 24 hours in 95/5% O2/CO2 at 37° C. before running the assay. Media was removed from the wells and 200 μl of 4 μM Fluo-4 AM added, this was incubated in a Wallace Victor 2V workstation at 37° C. for 30 minutes. The Fluo-4 AM was then removed from the wells, which were then washed twice with 200 μl of buffer (HBSS without calcium/magnesium/phenol red, 20 mM HEPES, 1 mM Ca^2+, 1 mM Mg^2+, 2.5 mM probenecid, pH to 7.4), 180 μl of buffer or test compound was added to the well and incubated for 30 minutes. The Victor 2V injectors were used to inject 20 μl of 5-HT after obtaining 10 0.1-second baseline readings at 535 nm, followed by 150 readings. All test compounds were aliquoted in 100% DMSO at 10 mM and diluted to 1 mM in 50% DMSO, subsequent dilutions were made using buffer. Buffer was also used to dilute the 5-HT. Data were analysed using Microsoft Excel and GraphPad Prism, with the latter used to produce sigmoidal dose-response curves for each compound. The compound concentration that inhibited the 5-HT response by 50% was taken (IC50-M), and the results are shown in Table 3, as pIC50, being the negative log (to the base 10) of the measured IC50 values.

T1 sequence (P41595 whole entry): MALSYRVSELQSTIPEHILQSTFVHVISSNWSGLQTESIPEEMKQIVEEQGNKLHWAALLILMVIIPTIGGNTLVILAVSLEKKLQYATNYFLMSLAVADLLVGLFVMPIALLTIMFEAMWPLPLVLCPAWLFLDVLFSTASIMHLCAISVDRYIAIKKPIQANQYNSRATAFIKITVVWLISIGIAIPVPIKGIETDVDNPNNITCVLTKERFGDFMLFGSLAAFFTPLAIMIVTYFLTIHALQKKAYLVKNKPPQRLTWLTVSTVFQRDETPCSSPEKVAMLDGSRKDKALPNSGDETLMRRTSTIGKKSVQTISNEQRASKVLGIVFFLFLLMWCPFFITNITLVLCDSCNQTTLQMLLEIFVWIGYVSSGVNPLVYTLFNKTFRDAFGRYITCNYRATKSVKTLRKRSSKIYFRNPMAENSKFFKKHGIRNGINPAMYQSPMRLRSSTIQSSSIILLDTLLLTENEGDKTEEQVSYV
T2 sequence (P28223 whole entry): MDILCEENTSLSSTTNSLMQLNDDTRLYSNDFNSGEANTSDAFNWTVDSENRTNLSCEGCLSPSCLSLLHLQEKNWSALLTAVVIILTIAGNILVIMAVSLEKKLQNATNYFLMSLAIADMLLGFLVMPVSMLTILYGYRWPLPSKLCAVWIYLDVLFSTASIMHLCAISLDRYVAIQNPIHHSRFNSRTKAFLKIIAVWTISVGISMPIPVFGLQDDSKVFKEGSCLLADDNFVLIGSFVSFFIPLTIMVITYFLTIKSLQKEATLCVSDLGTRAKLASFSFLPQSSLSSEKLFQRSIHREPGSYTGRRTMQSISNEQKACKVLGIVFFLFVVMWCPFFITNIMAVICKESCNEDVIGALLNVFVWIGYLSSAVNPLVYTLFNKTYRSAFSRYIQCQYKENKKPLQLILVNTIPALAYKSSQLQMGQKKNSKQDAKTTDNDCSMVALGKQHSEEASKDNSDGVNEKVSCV

Compound	Ki [1]	Ki [2]	Ki [3]	IC50 [4]	melting point
CNc1nc(-c2cccc3ccccc23)co1 [Compound 2, 2-methylamino-4-(naphth-1-yl)oxazole]	< 1000 nM	> 10 µM	> 1 µM	< 10 µM	164 to 166 °C
Cc1nc(N)oc1-c1cccc2ccccc12 [Compound 3, 2-amino-4-methyl-5-(naphth-1-yl)oxazole]	< 10 nM	> 10 µM	> 10 µM	< 0.1 µM	187 to 189 °C
Nc1nc(-c2ccc3ccccc3c2)co1 [Compound 16, 4-naphthalen-2-yl-oxazol-2-ylamine]	< 1000 nM	> 10 µM	> 10 µM	< 10 µM	–
COc1ccc2ccccc2c1-c1coc(NC(C)=O)n1 [Compound 25, N-[4-(2-methoxy-naphthalen-1-yl)-oxazol-2-yl]-acetamide]	< 100 nM	> 1 µM	> 1 µM	< 1 µM	–
